In series [1] the test system is leukocyte infiltration, peritonitis induced by thioglycolate. In words: Peritonitis assay induced by 3% thioglycolate. As to conditions: 300 μMol/Kg orally, mouse, 3% thioglycolate i.p., 4 h. It counts as in vivo. Here is the method:
In a second assay, the number of total leukocytes (10^6/mL) was evaluated in order to evaluate the ability to inhibit their infiltration in the inflammatory process.
The mice were treated with the substances being analyzed or carrier and after 1 h of oral administration, they were simultaneously subjected to the peritonitis assay, by administering intraperitoneally 1 ml of a 3% thioglycolate solution. 4 h after the administration of thioglycolate, the peritoneal cavity was washed with 3 ml of a HANKS solution (Balanced salt solution, free of Ca^2+ and Mg^2+). Next, the peritoneal wash was analyzed and the total counting of white blood cells was made in a Newbauer's chamber under an optical microscope with a 40× objective.

For series [2], the system named is mouse ear edema induced by capsaicin. The experiment in a line: Mouse ear edema assay induced by capsaicin. The series is classed as in vivo. The note with it: 300 μmol/Kg i.p., capsaicin 250 μg/ear 1 hour after administration. Here is the method:
This assay is characterized by an acute inflammatory response of the ear, with development of edema, and it was performed in order to evaluate the anti-inflammatory activity of the synthesized compounds.
In this assay, indomethacin was used as a control at 100 μmol/Kg, and the phthalimide derivatives were firstly evaluated at 300 μmol/Kg via i.p. From table 4, it can be observed that compounds IC and IE show an ear edema inhibition percentage higher than 64%. […] The other compounds, however, show a similar activity when compared to indomethacin (FIG. 01), taking into consideration the standard error.
This assay was performed using Swiss mice from both genders weighing from 18 to 30 grams. The animals were fasted for 8 hours with free access to water. This assay consists in locally administering (right ear) 20 μl of a capsaicin solution (250 μg/ear) diluted in acetone, 1 hour after the i.p. administration (diluted in 0.5% gum arabic). The left ear (control) received the carrier in which capsaicin was diluted (acetone) and the right ear received capsaicin. This assay is characterized by an acute inflammatory response of the ear, with development of edema. The animals were sacrificed and their ears were weighted to obtain the inflammation index. A biopsy (8 mm in diameter) of the ear was carried out. Next, the weights of the inflamed ears were compared against the weights of the contralateral ear (control ear) which were not treated with the phlogistic agent. The edema inhibition percentage was calculated by subtracting the ear treated with the carrier by that treated with capsaicin from each group of animals treated with the test substances, and then it was divided by the difference between the groups of the irritating agents and the control groups.

The next series deals with K562 cells. The experiment in a line: Cell viability in K562 culture (trypan blue). It counts as cell-based, human. Here is the method:
(§1) The human leukemia cell line K562 ATCC (American Type Culture Collection), Philadelphia, Pa., USA was used. The cells were cultured in DMEM median (Dulbecco's Modified Eagle Medium, Invitrogen, USA) containing 10% of fetal bovine serum and glutamine. The cells were maintained at 37° C. under a 5% CO2 atmosphere. For the experiments, the cells were incubated at a density of 1×10^5 cells/mL. In order to carry out the culture with hemin (30 uM), it was added 72 hours before the beginning of the experiment with the desired compound.
(§2) The 0-hour time consisted in removing non-treated K562 cells. From this point, the respective compounds were added at the desired concentrations (5, 30, 60 and 100 uM), the cells were then maintained for […] under culture, without a new addition of any compound or substitution of the culture medium. Cell collections were performed at the following times: 0, 24, 48, 72 and 96 hours. The morphology of the cells was analyzed at these points through cytospin slides stained with Leishman and the cell viability was performed by staining with trypan blue in a Neuberger's chamber.

In the next series the test system is gamma-globin mRNA. The experiment in a line: Gamma-globin gene expression in K562 cell culture by Real Time PCR. The series is classed as cell-based, human. As to conditions: for gene expression of gamma-globin: K562 erythroleukemic cells, Real Time PCR, 5-100 μM, 24-96 h. Here is the method: as §1, §2
The extraction method with TRIzol reagent (Gibco-BRL, Gaithersburg, Md.) according to the manufacturer's instructions was used in order to obtain the RNA from K562. The sample containing K562 and TRIzol was incubated for 5 minutes at room temperature in order to achieve complete dissociation of the nucleoproteic complexes, 200 μL of chloroform (CHCl3) was added and thoroughly stirred, and incubation was again performed by 5 minutes at room temperature. After centrifugation for 15 minutes at 19,000 g at a temperature of 4° C., the supernatant was obtained and stored in another tube, proceeding immediately to the step of precipitation with 500 μL of cold isopropanol. After homogenization, a new incubation was carried out for 10 minutes at room temperature, followed by centrifugation for 10 minutes at 19,000 g at 4° C. The supernatant was disposed of and 800 μL of 70% cold ethanol was added to the precipitate, with a new centrifugation being carried out for 5 minutes at 14,000 at 4° C. […]
The RNA samples obtained were subjected to the complementary DNA (cDNA) synthesis using the Superscript III RTTM kit (Invitrogen, Life Technologies). After reading in a spectrophotometer (Gene Quant-Pharmacia, USA) and quantification, 3 μg of RNA were treated with the enzyme DNase I (Invitrogen, Life Technologies), for removal of contaminant DNA. […]
After reading in a spectrophotometer (Gene Quant-Pharmacia, USA) and quantification, cDNA aliquots were used as template in quantitative real-time PCR reactions. The technique consists in optically monitoring the fluorescence emitted during the PCR reaction, by means of the binding of a specific probe or dye to the newly synthesized strand. […]

Structures are written as SMILES. Entries after “also recorded” stand apart in the source; their conditions may differ. Marks after values point to notes of the source that are not given here.

`O=C1c2ccccc2C(=O)N1CO[N+](=O)[O-]` [Compound IA, (1,3-dioxo-1,3-dihydro-2H-isoindol-2-yl)methyl nitrate]: in series [1], the “Cell Number avg (×106), total leukocytes” value was 4.9 ×106 and the “Inhibition % (leukocyte infiltrate)” value came to 12.5%. For the same compound, the “Average inhibition % (ear edema)” value in series [2] was 53.75%.
The term cell viability denotes a per cent measure of how many cells are alive, often set against a control. High values mean less harm to the cells, low ones more harm to the cells. Turning to `O=C1c2ccccc2C(=O)N1c1ccc(CCO[N+](=O)[O-])cc1` [Compound IE, 2-[4-(1,3-dioxo-1,3-dihydro-2H-isoindol-2-yl)phenyl]ethyl nitrate], in series [1], the “Cell Number avg (×106), total leukocytes” value is 4.13 ×106 and the “Inhibition % (leukocyte infiltrate)” value is reported as 26.25%. Also, the cell viability entry in the series with K562 cells (K562 assays with and without hemin, at the concentrations used) is recorded as “higher than 90%”. For the same compound, the “gene expression of gamma-globin in the presence of hemin versus absence of hemin” value with gamma-globin mRNA (K562 cells, hemin 30 uM, compared to the control) was “did not show a significantly higher activity”. Further, the “gene expression of gamma-globin” value in the series with gamma-globin mRNA is reported as “increasing the gene expression of gamma-globin”.
`Nc1ccc(S(=O)(=O)NO)cc1` [Compound IIA, 4-amino-N-hydroxybenzenesulphonamide]: in series [1], the “Cell Number avg (×106), total leukocytes” value is 4.0 ×106 and the “Inhibition % (leukocyte infiltrate)” value came out at 28.57%. In the series on K562 cells (at 0 h, pattern maintained during the assay), this compound had a cell viability of 97%. Further, the “Average inhibition % (ear edema)” value in series [2] came out at 49.24%. Further, the “concentration showing activity on gamma-globin expression” value with gamma-globin mRNA (K562 cells, 48 hours) was 5 µM. Moreover, the “gene expression of gamma-globin” value in the series on gamma-globin mRNA is “higher activity than the control; also recorded: higher than the increase provided by compound IE”.
Regarding `O=C1c2ccccc2C(=O)N1CCO[N+](=O)[O-]` [IB, 2-(1,3-dioxo-1,3-dihydro-2H-isoindol-2-yl)ethyl nitrate], in series [1], the “Cell Number avg (×106), total leukocytes” value was 2.73 ×106 and the “Inhibition % (leukocyte infiltrate)” value is 51.25* %. Moreover, the “Average inhibition % (ear edema)” value in series [2] was 46.55%.
For `O=C1c2ccccc2C(=O)N1c1ccc(CO[N+](=O)[O-])cc1` [ID, 4-(1,3-dioxo-1,3-dihydro-2H-isoindol-2-yl)benzyl nitrate], in that order: 3.8 ×106, 32.14% and 37.18%.

These data come from patent publication US8314255B2, “Use of phthalimide and/or sulphonamide derivatives in the treatment of diseases which require reducing the TNF- α levels and an exogenous source of nitric oxide, phthalimide derivatives, sulphonamide derivatives, and a method for obtaining a sulphonamide derivative” (priority 2007, dated 2012).
